Laboratory results published in ChEMBL document CHEMBL1201862, “PubChem BioAssay data set” (2004).
Activity calls are given as the source filed them. *1 amine or outer side, *2 acyl side, *3 side chain or, on linkers, in order; H or OH if unused. Where a SMILES comes first, the peptide text is derived from it. [ ]: non-standard residue; d: D form. X2 = CCC[C@@H](N[*:1])[C@H](C)C(=O)O[C@H](C(=O)[*:2])[C@@H](C)CC; X1 = CC(N[*:1])C(=O)C(C)(C)C(=O)[*:2]; NMeY = CN[C@@H](Cc1ccc(O)cc1)C(=O)O; NMeL = CN[C@@H](CC(C)C)C(=O)O; NMeV = CN[C@H](C(=O)O)C(C)C; NMeA = CN[C@@H](C)C(=O)O

What was measured:
[1] = test system: Vero; assay: cells; format: functional; conditions: Chlorocebus sabaeus
[2] = test system: Vero; assay: cells; format: functional, cell-based; conditions: Chlorocebus sabaeus
[3] = target: T1, Short transient receptor potential channel 4 (Mus musculus, UniProt Q9QUQ5); assay: mouse TRPC4 channel inhibitors, dose response, cell-based, HEK293 TRPC4/mu-opioid, Fluo-4 calcium (AID 434942); format: functional;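 note: potency of inhibitors blocking the TRPC4 calcium response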
T1 sequence (Q9QUQ5 whole entry): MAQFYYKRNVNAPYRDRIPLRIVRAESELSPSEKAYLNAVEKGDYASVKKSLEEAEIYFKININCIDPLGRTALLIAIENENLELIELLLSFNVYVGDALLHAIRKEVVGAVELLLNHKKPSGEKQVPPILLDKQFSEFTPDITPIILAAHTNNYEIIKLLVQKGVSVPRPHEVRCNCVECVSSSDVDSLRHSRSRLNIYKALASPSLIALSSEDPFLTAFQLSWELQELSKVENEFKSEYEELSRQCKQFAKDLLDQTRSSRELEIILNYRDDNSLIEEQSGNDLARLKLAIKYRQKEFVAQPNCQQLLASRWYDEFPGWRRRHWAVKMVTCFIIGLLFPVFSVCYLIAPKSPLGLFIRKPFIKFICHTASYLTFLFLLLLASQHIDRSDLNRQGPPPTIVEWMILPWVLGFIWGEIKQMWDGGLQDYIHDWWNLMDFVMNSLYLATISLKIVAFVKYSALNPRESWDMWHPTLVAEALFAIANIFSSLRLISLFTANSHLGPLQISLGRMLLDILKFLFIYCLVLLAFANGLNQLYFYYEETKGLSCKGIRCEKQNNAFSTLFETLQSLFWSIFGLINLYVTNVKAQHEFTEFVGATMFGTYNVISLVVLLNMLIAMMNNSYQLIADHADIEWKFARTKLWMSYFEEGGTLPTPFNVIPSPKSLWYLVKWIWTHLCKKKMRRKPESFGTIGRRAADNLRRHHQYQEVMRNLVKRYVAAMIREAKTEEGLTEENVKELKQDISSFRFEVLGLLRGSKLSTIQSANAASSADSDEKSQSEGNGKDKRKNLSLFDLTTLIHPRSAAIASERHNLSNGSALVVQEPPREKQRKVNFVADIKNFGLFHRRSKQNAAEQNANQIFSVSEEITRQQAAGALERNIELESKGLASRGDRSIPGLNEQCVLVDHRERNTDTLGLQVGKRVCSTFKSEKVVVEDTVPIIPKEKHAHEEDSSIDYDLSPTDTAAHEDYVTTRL

[4] = target: T2, Replicative DNA helicase DnaB (Mycobacterium tuberculosis, UniProt P9WMR3); assay: DnaB intein splicing inhibitors, dose response, biochemical, cell-free fluorescence (AID 449749); format: functional
T2 sequence (P9WMR3 whole entry): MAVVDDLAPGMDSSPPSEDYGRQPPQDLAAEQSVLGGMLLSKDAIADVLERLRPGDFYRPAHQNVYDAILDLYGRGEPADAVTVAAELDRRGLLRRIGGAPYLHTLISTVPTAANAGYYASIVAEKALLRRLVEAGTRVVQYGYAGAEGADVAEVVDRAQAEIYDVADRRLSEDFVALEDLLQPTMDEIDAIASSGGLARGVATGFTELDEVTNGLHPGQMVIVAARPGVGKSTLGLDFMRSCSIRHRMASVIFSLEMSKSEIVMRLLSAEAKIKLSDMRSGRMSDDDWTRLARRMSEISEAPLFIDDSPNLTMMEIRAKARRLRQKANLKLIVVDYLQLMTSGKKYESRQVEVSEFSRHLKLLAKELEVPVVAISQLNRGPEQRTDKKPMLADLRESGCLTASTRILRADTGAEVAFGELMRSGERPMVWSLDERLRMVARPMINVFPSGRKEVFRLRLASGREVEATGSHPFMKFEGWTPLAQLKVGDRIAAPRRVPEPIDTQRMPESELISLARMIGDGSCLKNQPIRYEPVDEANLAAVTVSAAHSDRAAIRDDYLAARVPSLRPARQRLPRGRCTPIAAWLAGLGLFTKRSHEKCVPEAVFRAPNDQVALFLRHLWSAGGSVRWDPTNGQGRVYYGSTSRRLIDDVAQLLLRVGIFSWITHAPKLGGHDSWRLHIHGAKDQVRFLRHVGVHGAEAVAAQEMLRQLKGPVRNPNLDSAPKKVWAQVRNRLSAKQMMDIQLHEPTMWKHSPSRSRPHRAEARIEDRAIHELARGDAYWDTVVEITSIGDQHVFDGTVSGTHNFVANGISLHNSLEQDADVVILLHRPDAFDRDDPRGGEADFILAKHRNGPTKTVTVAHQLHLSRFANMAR

[5] = test system: BJ; assay: cytotoxicity toward BJ-TERT-LT-ST fibroblasts, dose response, cell-based, RAS-independent, luminescence (AID 1935); format: functional; conditions: Homo sapiens;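 note: BJ fibroblasts immortalized with TERT plus LT and ST oncogenes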
[6] = test system: BJ; assay: cells; format: functional, cell-based; conditions: Homo sapiens
[7] = microbe, parasite or virus in culture; format: functional; conditions: Mycobacterium tuberculosis
[8] = target: T3, Protein RecA (Mycobacterium tuberculosis, UniProt P9WHJ3); assay: Fluorescence Cell-Free Homogeneous Dose Retest to Identify Inhibitors of RecA-Intein Splicing Activity. [Related pubchem assays (depositor defined):AID2097, AID2223, AID489010, AID492950]; format: functional
T3 sequence (P9WHJ3 whole entry): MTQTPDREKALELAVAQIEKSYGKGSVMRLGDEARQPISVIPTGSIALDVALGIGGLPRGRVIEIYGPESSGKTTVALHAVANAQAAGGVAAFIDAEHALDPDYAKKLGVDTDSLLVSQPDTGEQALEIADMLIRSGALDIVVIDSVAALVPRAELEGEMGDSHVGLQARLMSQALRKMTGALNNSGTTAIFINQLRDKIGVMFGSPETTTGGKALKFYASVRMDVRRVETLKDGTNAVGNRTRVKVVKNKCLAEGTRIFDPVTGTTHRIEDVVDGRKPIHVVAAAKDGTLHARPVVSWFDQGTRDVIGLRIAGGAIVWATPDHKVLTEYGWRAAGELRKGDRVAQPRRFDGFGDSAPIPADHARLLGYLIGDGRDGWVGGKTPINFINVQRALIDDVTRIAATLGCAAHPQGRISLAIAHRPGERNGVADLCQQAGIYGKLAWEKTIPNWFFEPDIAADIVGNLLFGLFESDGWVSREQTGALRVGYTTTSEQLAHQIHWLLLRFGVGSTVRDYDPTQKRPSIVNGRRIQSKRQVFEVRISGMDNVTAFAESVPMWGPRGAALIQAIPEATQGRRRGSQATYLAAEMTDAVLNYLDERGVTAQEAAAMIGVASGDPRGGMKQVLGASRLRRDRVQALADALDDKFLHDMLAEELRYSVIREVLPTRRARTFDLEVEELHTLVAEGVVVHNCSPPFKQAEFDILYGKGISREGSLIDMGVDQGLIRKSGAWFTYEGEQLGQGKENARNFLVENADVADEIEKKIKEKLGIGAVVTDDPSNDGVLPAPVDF

[9] = test system: BJ; assay: cytotoxicity toward BJ-TERT fibroblasts, dose response, cell-based, RAS-independent, luminescence (AID 1933); format: functional; conditions: Homo sapiens
[10] = cytotoxicity in HEK-293T cells, dose response, cytotoxicity control for TCR NF-kB inhibitor project, luminescence, T-cell screen hits (AID 489026); format: functional, cell-based;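 note: cells exposed to compound about 14 hours before the viability readout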
[11] = target: T4, Microphthalmia-associated transcription factor (Homo sapiens, UniProt O75030); assay: TRPM1 promoter luciferase signal decrease, dose response, MITF inhibitor project, cell-based, SK-MEL-5, cherry-picked, set 3 (AID 493073); format: functional
T4 sequence (O75030 whole entry): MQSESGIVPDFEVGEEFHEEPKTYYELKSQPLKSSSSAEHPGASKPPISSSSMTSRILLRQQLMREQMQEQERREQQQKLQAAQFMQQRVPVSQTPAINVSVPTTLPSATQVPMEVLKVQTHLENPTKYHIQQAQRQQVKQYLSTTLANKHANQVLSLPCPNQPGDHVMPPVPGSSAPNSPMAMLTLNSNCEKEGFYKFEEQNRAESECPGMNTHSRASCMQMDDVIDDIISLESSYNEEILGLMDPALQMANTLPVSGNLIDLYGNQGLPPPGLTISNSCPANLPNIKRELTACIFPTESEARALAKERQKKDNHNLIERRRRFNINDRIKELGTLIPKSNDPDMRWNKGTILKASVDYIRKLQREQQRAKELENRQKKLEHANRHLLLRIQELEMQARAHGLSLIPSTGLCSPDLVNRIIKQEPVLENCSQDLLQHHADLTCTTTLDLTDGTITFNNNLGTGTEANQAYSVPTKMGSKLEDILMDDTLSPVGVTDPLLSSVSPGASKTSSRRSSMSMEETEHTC

[12] = cytotoxicity toward DRD oncogenic fibroblasts, dose response, cell-based, non-viral oncogenic, luminescence (AID 1934); format: functional; conditions: Homo sapiens
[13] = target: T1, Short transient receptor potential channel 4; assay: mouse TRPC4 channel activators, dose response, cell-based, HEK293 TRPC4/mu-opioid, Fluo-4 calcium (AID 434937); format: functional
[14] = target: T5, DNA repair protein RAD52 homolog (Homo sapiens, UniProt P43351); format: functional, biochemical
T5 sequence (P43351 whole entry): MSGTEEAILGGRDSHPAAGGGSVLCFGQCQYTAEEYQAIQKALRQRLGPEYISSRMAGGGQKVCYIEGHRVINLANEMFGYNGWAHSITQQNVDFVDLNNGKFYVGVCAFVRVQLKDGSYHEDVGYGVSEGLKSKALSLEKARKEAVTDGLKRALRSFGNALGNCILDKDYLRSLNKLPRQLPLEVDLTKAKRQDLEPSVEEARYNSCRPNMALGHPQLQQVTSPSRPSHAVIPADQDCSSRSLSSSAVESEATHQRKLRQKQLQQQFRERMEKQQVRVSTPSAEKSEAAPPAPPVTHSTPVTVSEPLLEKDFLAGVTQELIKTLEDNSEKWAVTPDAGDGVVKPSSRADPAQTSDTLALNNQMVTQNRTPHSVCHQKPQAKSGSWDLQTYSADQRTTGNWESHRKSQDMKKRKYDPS

Cc1cc(N2CCN(Cc3nc(-c4ccc(Cl)cc4)oc3C)CC2)cc(C)n1
CC50 [1]: > 25 µM (active) | IC50 [2]: 23.7 µM (active)

c1ccc2c(N3CCCCC3)nc(N3CCOCC3)nc2c1
EC50 [3]: 1.88 µM (active)

Cc1ccc2c(c1)Oc1ccc(NC(=O)CCl)cc1C(=O)N2
AC50 [4]: 15.6 µM (active) | EC50 [5]: 4.2 µM (inconclusive) | EC50 [6]: 2.88 µM (inconclusive) | CC50 [7]: 2.96 µM (active) | EC50 [8]: 4.53 µM (active) | EC50 [9]: 2.99 µM (active) | IC50 [10]: 17.3 µM (active) | AC50 [11]: 10.1 µM (active) | EC50 [12]: 6.28 µM (active)

CCCN(CCC)C1=CC(=[N+]2CCCC2)CC(C)(C)C1
IC50 [10]: > 80 µM (inactive) | AC50 [11]: 2.02 µM (active)

COc1cccc(-c2nn(-c3ccccc3)cc2CN(C)C(C)c2ccncn2)c1 (stereo unspecified)
EC50 [3]: 2.99 µM (active) | EC50 [13]: 6.68 µM (active)

CCOc1ccc2c(C)nc(NC3=NC(C)=CC(C)(C)N3)nc2c1
EC50 [3]: 1.68 µM (active) | AC50 [14]: 4.06 µM (active)

CCOc1ccccc1N(CC)C(=O)c1nn(C)c2c1CSc1ccccc1-2
EC50 [3]: 2.99 µM (active)

COC(=O)c1[nH]c2c(c1C)C(=O)CC(c1cccc(OC)c1)C2 (stereo unspecified)
EC50 [5]: 0.665 µM (active) | EC50 [6]: 1.62 µM (active) | EC50 [9]: 0.773 µM (active) | IC50 [10]: > 80 µM (inactive) | EC50 [12]: 0.619 µM (active)

CC(=O)Nc1ccc(S(=O)(=O)N2CCSc3ccccc32)cc1
IC50 [10]: > 80 µM (inactive)

CCC[C@H]1NC(=O)[C@H](C)N(C)C(=O)C(C)(C)C(=O)C(C)NC(=O)[C@H](Cc2ccc(OC)cc2)N(C)C(=O)[C@H](C(C)C)N(C)C(=O)CNC(=O)[C@H](CC(C)C)N(C)C(=O)CNC(=O)[C@H]([C@@H](C)CC)OC(=O)[C@H]1C (stereo partly specified) (cyclo(G[NMeL]G[NMeV][NMeY](Me)[X1][NMeA][X2]))
IC50 [10]: > 80 µM (inactive)
